# In patent US10184115B2, “Mutated cellobiose dehydrogenase with increased substrate specificity” (DIRECTSENS GMBH, priority 2012, dated 2019):
# Target: T1, Myriococcum thermophilum cellobiose dehydrogenase (CDH, SEQ ID NO: 1) variant R622N (Thermothelomyces myriococcoides, UniProt A9XK88, R622N)
# T1 sequence (A9XK88 22-828 R622N): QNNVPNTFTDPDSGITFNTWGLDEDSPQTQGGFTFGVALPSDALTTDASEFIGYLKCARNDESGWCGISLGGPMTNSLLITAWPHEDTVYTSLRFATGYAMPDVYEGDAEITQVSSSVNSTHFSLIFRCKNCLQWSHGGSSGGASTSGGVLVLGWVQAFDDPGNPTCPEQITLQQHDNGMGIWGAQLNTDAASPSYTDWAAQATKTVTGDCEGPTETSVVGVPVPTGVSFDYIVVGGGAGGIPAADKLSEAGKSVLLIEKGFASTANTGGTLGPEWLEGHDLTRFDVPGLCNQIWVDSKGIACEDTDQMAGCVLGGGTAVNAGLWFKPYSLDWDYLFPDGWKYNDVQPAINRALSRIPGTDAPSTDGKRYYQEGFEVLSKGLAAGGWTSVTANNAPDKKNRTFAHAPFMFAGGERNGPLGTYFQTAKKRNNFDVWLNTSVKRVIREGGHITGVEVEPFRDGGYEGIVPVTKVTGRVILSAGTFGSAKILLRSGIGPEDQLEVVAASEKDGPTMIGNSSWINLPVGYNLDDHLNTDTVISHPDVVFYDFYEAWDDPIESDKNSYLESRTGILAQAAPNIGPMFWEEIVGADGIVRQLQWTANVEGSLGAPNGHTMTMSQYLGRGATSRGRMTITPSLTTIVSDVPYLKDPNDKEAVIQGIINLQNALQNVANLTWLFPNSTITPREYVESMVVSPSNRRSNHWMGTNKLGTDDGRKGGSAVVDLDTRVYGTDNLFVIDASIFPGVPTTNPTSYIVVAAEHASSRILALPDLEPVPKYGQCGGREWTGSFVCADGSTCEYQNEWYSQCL
# Assay: Steady-state kinetics, DCIP assay: M. thermophilum CDH R622N
# Format: biochemical
# Conditions: apparent, pH 4.5, 30° C.
# Description: Enzyme activity was assayed at 30° C. using either the DCIP (Karapetyan et al., 2005 Journal of Biotechnology 121: 34-48) or cytochrome c (Canevascini et al., 1991, European Journal of Biochemistry 198: 43-52) as electron acceptor. […] Stock solutions of carbohydrates used for kinetic measurements were prepared in the respective buffer and allowed to stand overnight for mutarotation, while stock solutions of electron acceptors were prepared in water and immediately used. The reaction stoichiometry is 1 for the two-electron acceptor DCIP (1 mole of DCIP reduced per mole of carbohydrate oxidized), but 2 for the one-electron acceptor cytochrome c. Kinetic constants were calculated by fitting the observed data to the Henri-Michaelis-Menten equation or to the adapted model for substrate inhibition using nonlinear least-squares regression and the program SigmaPlot (Systat Software, San Jose, Calif., USA). […]
# Recombinant wild-type CDH as well as variants were produced in 1 L baffled flasks. […] Increase in activity was monitored using the DCIP and the cytochrome c enzyme assays. […]
# The sample was loaded on a 20 mL PHE Sepharose FF column (HR26/20) equilibrated with 50 mM Na-acetate buffer pH 5.5 containing 20% ammonium sulfate. […] Fractions were tested for CDH activity and pooled according to the highest Reinheitszahl (RZ, calculated from the absorbance ratio 420 nm/280 nm). […]
structure (smiles),measurement,value
"OC[C@H]1O[C@H](O[C@H]2[C@H](O)[C@@H](O)C(O)O[C@@H]2CO)[C@H](O)[C@@H](O)[C@@H]1O (stereo partly shown) [Maltose, maltose]",kcat/KM,5.2 M⁻¹ s⁻¹
